Results as given in patent US6545048B1, “Compositions and methods of treating cancer using compositions comprising an inhibitor or endothelin receptor activity” (California Institute of Technology, priority 1999, dated 2003).
“Also recorded” adds a separate entry of the source. Where a SMILES comes first, the peptide text is derived from it. [ ]: non-standard residue; d: D form.

Experiments:
[1] = tested on: human melanoma cell lines; test: MTS cell viability/cell number assay, melanoma lines; assay type: cell-based; conditions: for number of viable cells: 4 days
Experimental: Cells were cultured in the presence of BQ788 or vehicle or with no treatment for 4 days. Three wells of each condition were subjected to the MTS assay. The means were calculated and plotted as percent of the vehicle-treated value, +S.E.M. P values were calculated using […] for absolute values. The experiment was repeated 3 times, each yielding similar results.
(§1) Cell culture. Human melanoma cell lines were obtained from the American Tissue Culture Collection (ATCC) and were cultured with Dulbecco's Eagle medium (ATCC), containing 10% fetal calf serum, glutamine (Gibco) and antibiotics (concentration; Pen-Strep mix, Gibco) in a humidified incubator with 5% CO2 at 37° C. BQ788 and BQ123 (Calbiochem) were dissolved in 2% polyoxythylene (60) hydrogenated castor oil (HCO60; Nikko Chemicals). Cells were cultured in 96 well ELISA plates. For the cell viability/cell number assay, the day after plating, inhibitor or vehicle was added ard the cultures incubated for 4 days. The MTS assay was used to quantify cells by measuring OD at […] (Promega).

[2] = tested on: kidney 293 cells; test: MTS cell viability/cell number assay, kidney cells; assay type: cell-based, human; conditions: high concentrations, 4 days
[3] = tested on: A375 melanoma tumor; test: Systemic (i.p.) administration, A375 melanoma grafts in nude mice; assay type: in vivo
Experimental: The experiment was similar to that described in FIG. 6, except that the drug and vehicle were injected daily i.p. In FIG. 7A, the data for the 6 BQ788-treated mice were pooled.
We next asked if systemic administration of BQ788 inhibits tumor growth. In these experiments, tumor induction and the starting point of the treatments were as for the intra-tumor approach. At that point, mice were injected i.p. with 100 μl of BQ788 solution (0.6 mg BQ788 in 30% water and 70% saline, at a final HCO60 concentration of 0.6%) once or twice a day for a period of 9 days. Control mice received the same injections but without BQ788. In the first experiment, mice were injected once a day, and in the second experiment the mice were injected in the morning and then again in the early evening. […] However, there was some heterogeneity in the response of the mice to BQ788.

[4] = literature reports; cited from earlier work
[5] = tested on: A375 melanoma tumor; test: Histology of tumors from the i.p. experiment (TUNEL, anti-CD31); assay type: in vivo, nude mice
Experimental: FIGS. 8A-8D show representative sections from 4 tumors from BQ788 injected mice and FIGS. 8E-8G show tumors from vehicle-injected mice. […] The magnification is 20×.
Immunohistochemistry. Tumors were frozen on dry ice, cut on a cryostat into 20 μm sections, and stored at −80° C. Sections were rinsed in calcium and magnesium-free phosphate buffered saline (PBS), fixed in 4% paraformaldehyde for 1 hour at room temperature, blocked with 2% rabbit serum and incubated with primary antibody overnight at 4° C. After washing in PBS sections were incubated with a biotinylated secondary antibody, and staining developed using the Elite ABC kit (Vector Laboratories, CA). The primary antibodies used in this study were monoclonal rat anti-mouse CD31 (platelet endothelial cell adhesion molecule) and rat anti-mouse CD45 (leukocyte common antigen found on all cells of hematopoietic origin, except erythrocytes) (Pharmagen, San Diego, Calif.). A cell death kit was used for TUNEL staining (Boehringer Mannheim).
Several of the tumors from the i.p. injection experiment were taken for histological examination on day 10. Sections were stained with anti-CD31 antibody for angiogenesis, and with the TUNEL method for apoptosis. […] These effects in culture appear mediated by the action of the drug on ETRB itself, as BQ788 is ineffective on A375 cells in the presence of the ETRB agonist S6c. A further indication of the specificity of the action of BQ788 is its very different effect on kidney 293 cells.

[6] = tested on: human melanoma cell lines; test: Morphology of cultured melanoma cells treated with antagonist (bright field); assay type: cell-based
Experimental: (§2) Cells were cultured for 4 days with 100 μM BQ788 (FIGS. A, C, and E) or with vehicle (FIGS. B, D, and F). The cell lines were melanoma line SK-MEL 28 (FIGS. A and B), melanoma line SK-MEL 5 (FIGS. C and D), and kidney 293 (FIGS. E and F). […] Pictures were taken with bright field optics at 40×magnification.
as §1
(§3) To test the hypothesis that ETRB function plays a role in melanoma cell growth and differentiation, we cultured 7 human melanoma cell lines and one human kidney cell line with the selective ETRB antagonist, BQ788.

[7] = tested on: kidney 293 cells; test: Morphology of cultured kidney 293 cells treated with antagonist (bright field); assay type: cell-based, human; conditions: 100 μM, 4 days
Experimental: as §2, §1, §3

[8] = tested on: A375 cells; test: MTS assay, S6c alone or in combination with BQ788; assay type: cell-based, human
Experimental: In experiments similar to those illustrated in FIG. 2, S6c was tested for its effects on cultured A375 cells, alone or in combination with BQ788, at various concentrations.
as §1
Thus, the ability of BQ788 to lower melanoma cell number is likely to be through its action on ETRB and not as a side effect on another aspect of melanoma cell physiology.

[9] = tested on: A375 melanoma tumor; test: Intra-tumor injection, A375 melanoma grafts in nude mice; assay type: in vivo, nude mice (nu/nu, BALB/c background)
Experimental: Nude mice (nu/nu, BALB/c background) were implanted with grafts of A375 cells subcutaneously on the flank. After the tumors had reached approximately 4 mm in diameter they were injected daily with BQ788 for 9 days. Perpendicular tumor diameters were measured daily to estimate tumor volume. Controls were injected on the same schedule with vehicle. Data from 3 experiments utilizing 10 BQ788-treated mice and 8-vehicle treated mice were pooled. P values were calculated using t test. Similar conclusions come from measuring tumor weights.
For the in vivo experiments we chose the A375 melanoma cell line. Although this line is not the most sensitive to BQ788 treatment in culture, it is known to grow readily in nude mice. First, dissociated cells were injected as a suspension into the flank of nude mice. When tumors developed, one mouse was sacrificed, the tumor removed and cut into pieces of approximately 3 mm in diameter and implanted under the skin of a new series of nude mice. When the tumor reaches 4 mm in diameter (which takes approximately 12 days, but can vary), 25 μl of a solution containing 20, μg/μl of BQ788 dissolved in 2% polyoxythylene (60) hydrogenated castor oil (HCO60) (Ishikawa, et al., Proc. Natl. Acad. Sci. USA, 91:4892-6 (1994)) was injected into the center of the tumor daily for 9 days. Tumors in control mice were injected in the same way with 25 μl of 2% HCO60. Before each injection the tumor dimensions were measured. At the outset, the mean tumor volume was 26 mm^3 in both control and BQ788-treated mice. […] Similar conclusions come from comparison of tumor weights (means of 446 mg versus 93 mg; p<0.005).

[10] = A375, SK-MEL 28 and RPMI 7951 cells

CC(C)C[C@@H]1NC(=O)[C@@H](C(C)C)NC(=O)[C@@H]2CCCN2C(=O)[C@@H](CC(=O)O)NC(=O)[C@@H](Cc2c[nH]c3ccccc23)NC1=O [BQ123] (cyclo(L[dW][dD]P[dV]))
cell number ([1]; A375 and SK-MEL 28 melanoma lines): slightly increases cell number
number of viable cells ([1]; any of the cell lines, even at high concentrations): does not reduce the number of viable cells; also recorded: did not inhibit melanoma cell growth in culture

CCCC[C@@H](NC(=O)[C@@H](Cc1cn(C(=O)OC)c2ccccc12)NC(=O)[C@H](CC(C)(C)C)NC(=O)N1[C@H](C)CCC[C@@H]1C)C(=O)O [BQ788, N-cis-2,6-dimethylpiperidinocarbonyl-L-γ-methylleucyl-D-1-methoxycarbonyltrptophanyl-D-norleucine]
number of viable cells [2]: not kidney cells; also recorded: is not reduced
viability [1, 10]: almost complete loss of viability
sensitivity among the cell lines ([1]; RPMI 7951 cells): highest degree of sensitivity
viability ([1]; SK-MEL 3 cells): less affected than the other lines
viability ([1]; SK-MEL 24 and SK-MEL 31 cells): more affected
number of viable cells ([1]; all 7 melanoma lines, 100 μM): reduces the number of viable cells; also recorded: very significant loss in the number of viable cells
tumor growth ([3]; i.p. once or twice a day for 9 days, pooled mice): inhibits melanoma tumor growth; also recorded: effective inhibition of tumor growth
tumor growth, first subgroup of mice ([3]; i.p., after 6 days, one set of mice): slowed tumor growth
tumor growth, second subgroup of mice ([3]; i.p., after 6 days, other set of mice): caused the tumors to regress; also recorded: the tumors shrank and displayed complete growth arrest
tumor size versus day 1 ([3]; i.p., first 6 days): did not differ significantly from their size at day 1
tolerability [4]: can be well tolerated
TUNEL labeling (apoptosis) ([5]; day 10): TUNEL-positive cells are comparatively greater
angiogenesis (anti-CD31 staining) ([5]; day 10 (data not shown)): no evidence that BQ788 blocks angiogenesis
TUNEL labeling (apoptosis) ([5]; day 10, listed as BQ-788): enhanced TUNEL labeling
morphology [6, 10]: vacuoles in their cytoplasm
morphology ([6]; SK-MEL 3 cells): increased surface area (dendritic morphology)
phenotype / dendricity ([6]; SK-MEL 5 cells, 100 μM, 4 days): dendritic phenotype; also recorded: increased dendricity
morphology ([6]; SK-MEL 24 and SK-MEL 31 cells): increased pigmentation
morphology ([6]; SK-MEL 28 and SK-MEL 5, 100 μM, 4 days (FIG. 1 legend)): different shape and accumulation of black pigment
morphological changes ([6]; SK-MEL 28 cells, 100 μM, 4 days): develop large cytoplasmic vacuoles and enhanced pigmentation
surface area ([6]; all the melanoma lines): increased surface area
pigmentation ([6]; most melanoma lines (except for SK-MEL 3)): major increases in pigmentation
morphological changes [7]: does not result in any of these morphological changes
effect of BQ788 on cells in the presence of S6c ([8]; A375 cells, ETRB agonist S6c present): ineffective
growth rate (final size minus initial size) compared to controls ([9]; 9 days, intra-tumor injection): 6 times slower
mean tumor volume ([9]; after 9 days of daily intra-tumor injection, control 376 mm^3, 26 mm^3 at the outset): 84 mm^3
tumor growth ([9]; intra-tumor injection daily for 9 days): inhibits melanoma tumor growth
tumor weight (mean) ([9]; intra-tumor injection, control 446 mg, p<0.005): 93 mg

sarafotoxin 6c [S6c]
A375 cell number ([8]; S6c alone, 0.1 to 1 μM): stimulates cell growth; also recorded: increases A375 cell number
block of the effects of BQ788 on cell number ([8]; S6c in combination with BQ788, A375 cells): can block the inhibitory effects of the ETRB antagonist; also recorded: can completely block the effects of BQ788
